The values that follow come from US12162850B2, “Formulations” (Betagenon AB, priority 2019, dated 2024).

For orientation: AUC(0-t) means exposure summed from dosing to a finite time, without extrapolation to infinity. As a reminder, the Tmax is the time from dosing to the highest level.

The nature of this series: Single dose oral pharmacokinetic studies in rabbits. In kind it is in vivo. The following applies: male, New Zealand White, rabbit, plasma; for AUC(0-t): 25 mg/kg, 25 mg/kg b.w. oral single dose.

Regarding `O=C(Nc1nc(=O)n(Cc2ccc(Cl)cc2)s1)c1ccc(Cl)cc1.[Na]` [Compound 2, 4-chloro-N-[2-[(4-chlorophenyl)methyl]-3-oxo-1,2,4-thiadiazol-5-yl]benzamide sodium salt], the AUC(0-t) worked out at 1700 ± 248 µg·h/mL (enteric coated capsule with MgO, rabbit plasma (Example 9)) and 1470 ± 78.7 µg·h/mL (enteric coated capsule with mannitol, rabbit plasma (Example 10)). Further, the Tmax (53 mg/kg, enteric coated capsule with MgO, 53 mg/kg b.w. (equivalent to 50 mg/kg Compound 1) oral single dose, rabbit plasma (Example 11)) worked out at 48 ± 24 h.
